Tests used:
[1] = test system: co-culture de cellules endothéliales humaines et de fibroblastes humains; test: in vitro angiogenesis model: co-culture, tubule length quantified by image analysis after 12 days; assay type: cell-based; settings: 12 days of culture, untreated control 4150
From the text: Par ailleurs, la composante vasculaire jouant un rôle fondamental dans la croissance du follicule pileux, l'influence des principes actifs précédemment décrits sur ce paramètre a été évaluée sur un modèle d'angiogénèse in vitro.
Le modèle repose sur une co-culture de cellules endothéliales humaines et de fibroblastes humains (kit angiogénèse Bioprédic International), qui est réalisée en présence ou pas des actifs à tester.
Les cellules endothéliales migrent à travers la matrice pour former des structures tubulaires, qui sont quantifiées au bout de 12 jours de culture. La quantification de la longueur des capillaires est réalisée par analyse d'image.

[2] = test system: cellules de la papille dermique du follicule pileux; test: cell metabolism of dermal papilla cells in monolayer culture; assay type: cell-based; settings: for augmentation du métabolisme cellulaire: culture mono-couche, concentrations not given
From the text: L'intérêt de l'association de ces deux actifs a été confirmé sur d'autres modèles cellulaires, notamment sur le métabolisme des cellules de la papille dermique du follicule pileux en culture mono-couche, où l'association GP4G + nicotinate de tocophérol a montré une augmentation de + 26,2 % du métabolisme cellulaire, supérieure à celle des actifs testés seuls (12,6 % et 18,3 % respectivement).

In the case of Nc1cc(N2CCCCC2)nc(N)[n+]1[O-] [Minoxidil, reference compound], the “LONGUEUR DES TUBULES PAR CHAMP DE COMPTAGE Moyenne” value ([1]; Minoxidil 25 µg/ml) is reported as 7662.
For Cc1c(C)c2c(c(C)c1OC(=O)c1cccnc1)CCC(C)(CCCC(C)CCCC(C)CCCC(C)C)O2 (stereo not drawn) [Nicotinate de tocophérol, Alpha Tocophéryl Nicotinate], the “LONGUEUR DES TUBULES PAR CHAMP DE COMPTAGE Moyenne” value ([1]; 1 µg/ml) was 4015, the “LONGUEUR DES TUBULES PAR CHAMP DE COMPTAGE Moyenne” value ([1]; 10 µg/ml) was 4634 and the “LONGUEUR DES TUBULES PAR CHAMP DE COMPTAGE Moyenne” value ([1]; 20 µg/ml) was 5363. The “augmentation du métabolisme cellulaire” value [2] was 18,3%.
In the case of Cc1ccc(C(=O)Nc2ccc(S(=O)(=O)O)c3cc(S(=O)(=O)O)cc(S(=O)(=O)O)c23)cc1NC(=O)c1cccc(NC(=O)Nc2cccc(C(=O)Nc3cc(C(=O)Nc4ccc(S(=O)(=O)O)c5cc(S(=O)(=O)O)cc(S(=O)(=O)O)c45)ccc3C)c2)c1 [Suramine, reference compound], the “LONGUEUR DES TUBULES PAR CHAMP DE COMPTAGE Moyenne” value ([1]; Suramine 20 µM) is reported as 3072.
diguanosine tétraphosphate [GP4G] was tested, and the “LONGUEUR DES TUBULES PAR CHAMP DE COMPTAGE Moyenne” value ([1]; GP4G 0.01 %) was 3814, the “LONGUEUR DES TUBULES PAR CHAMP DE COMPTAGE Moyenne” value ([1]; GP4G 0.1 %) was 4040 and the “LONGUEUR DES TUBULES PAR CHAMP DE COMPTAGE Moyenne” value ([1]; GP4G 1.0 %) was 6803. For the same compound, the “augmentation du métabolisme cellulaire” value [2] was 12,6% and the “métabolisme des cellules de la papille dermique (CPD)” value ([2]; en présence de GP4G, result in words) was “augmentation fonction-dose”.
